Data taken from patent US4713238A (GAF Corporation, priority 1986, dated 1987).
Converted amounts (≈) assume the structure as drawn.

Assays:
[1] = cited from earlier work
physchem = conditions: water
Method: The pH was adjusted with a buffer solution to 6 and distilled water was added to bring the solution to 1% concentration. The resulting mixture was agitated on a horizontal shaker at room temperature for 24 hours.
The pH was then adjusted to 6.5 with a concentrated aqueous hydrochloric acid solution to convert the complexed salt to the complexed product of the process and agitation was continued for 2 hours.

solubility thermodynamic at 24 h (physchem; pH 6, water): 500 µg/mL (≈ 1690 µM) | solubility (physchem; water solubility of uncomplexed chlorothiazide): ~500 µg/mL (≈ 1690 µM)
SMILES: NS(=O)(=O)c1cc2c(cc1Cl)N=CNS2(=O)=O [chlorothiazide, 6-chloro-7-sulfamyl-1,2,4-benzothiadiazine-1,1-dioxide]
solubility in alkaline aqueous solutions ([1]; alkaline aqueous solutions / alkali hydroxides): soluble in alkaline aqueous solutions | water-solubility ([1]; pH 6): 0.5 g. per liter
